{
  "source": "patent US8148425B2",
  "about": "“Pharmaceutical composition containing phloroglucinol and paracetamol” (Promindus (Actions Promotionnelles Dans l'Industrie et le …, priority 2007, dated 2012)",
  "system": "painful spasm caused by intraperitoneal injection of phenylbenzoquinone in mice",
  "experiment": "Siegmund test or Writhing test (phenylbenzoquinone-induced painful spasm)",
  "type": "in vivo, mice (male, Swiss strain)",
  "details": "esophageal tube, 30 min before phenylbenzoquinone",
  "method": "During said tests, the antispasmodic and analgesic activity of phloroglucinol, of paracetamol, and of phloroglucinol combined with paracetamol was evaluated using the Siegmund test or “Writhing test”. The principle of this test, which is familiar to those skilled in the art, is briefly summarized hereinafter. The intraperitoneal injection of phenylbenzoquinone in mice causes a painful spasm, which can be reduced with antispasmodic substances (causal medication) and analgesic substances (symptomatic medication).\nThe test was carried out on batches of 10 male mice, of the Swiss strain, having an average weight of 22 g±2. The spasmodic and painful syndrome caused by the intraperitoneal injection of 0.25 ml of the phenylbenzoquinone solution is characterized by hind limb stretching movements and dorso-abdominal musculature twisting movements, which accounted for a period of time of 30 min, starting from 15 min following the administration of the phenylbenzoquinone.\nAn antispasmodic and analgesic effect manifests itself through a reduction in the number of spasmodic attacks, which is dependent on the dose. For each test, the substance being studied is administered by means of an esophageal tube, 30 min before the phenylbenzoquinone.\nFor experimental ease, the following were used: • phloroglucinol Lyoc (lyophilizate), and • effervescent paracetamol (tablet); the two substances being perfectly soluble and miscible.\nTo test the products administered in isolation (prior art), on the one hand, phloroglucinol lyocs (lyophilized systems) were dissolved in distilled water, and on the other hand, effervescent paracetamol tablets were solubilized in distilled water (the solution obtained has a pH of 5).\nTo test the pharmaceutical compositions of the invention, such phloroglucinol lyocs (lyophilized systems) and such effervescent paracetamol tablets were dissolved and solubilized together. The solution which contains the two active ingredients itself also has a pH of 5.\nGiven the metabolism in this animal species, the mouse, which is more accelerated than in humans, those skilled in the art, specialists in pharmacology, most commonly use doses which are multiples of the human dose in order to be able to readily objectivize the results.\nThe results are expressed as percentage of inhibition of the spasm and of the pain relative to control animals which receive only 20 ml/kg of distilled water.",
  "note": "Several values for one entry are separate records, joined by “and”; a condition that tells them apart may be missing. Equal entries are not always repeated.",
  "data": [
    {"smiles": "CC(=O)Nc1ccc(O)cc1", "note": "[Paracetamol, 4-acetylaminophenol]", "values": [
      {"measurement": "% inhibition of the spasm and of the pain relative to control animals", "setting": "paracetamol 50 mg/kg, mice (repeated in each of four series)", "result": "40% and 39% and 37%"}
    ]},
    {"smiles": "Oc1cc(O)cc(O)c1", "note": "[Phloroglucinol, 1,3,5-trihydroxy-benzene]", "values": [
      {"measurement": "% inhibition of the spasm and of the pain relative to control animals", "setting": "phloroglucinol 40 mg/kg, mice", "result": 7, "unit": "%"},
      {"measurement": "% inhibition of the spasm and of the pain relative to control animals", "setting": "phloroglucinol 80 mg/kg, mice", "result": 21, "unit": "%"},
      {"measurement": "% inhibition of the spasm and of the pain relative to control animals", "setting": "phloroglucinol 100 mg/kg, mice", "result": 27, "unit": "%"},
      {"measurement": "% inhibition of the spasm and of the pain relative to control animals", "setting": "phloroglucinol 120 mg/kg, mice", "result": 32, "unit": "%"}
    ]}
  ]
}
